Results: patent US8609638B2, “Enzyme inhibiting compounds and methods” (priority 2009, dated 2013)
Read-outs that look alike come from different tables or passages of the source.

Target: T1, IspH (LytB), E-4-hydroxy-3-methyl-but-2-enyl diphosphate reductase (Aquifex aeolicus, UniProt O67625)
T1 construct: inferred from Ni-NTA purification with imidazole elution; made in house; host or cells: E. coli BL-21(DE3)
Test: biochemical
Parameters: species or system A. aeolicus
Protocol: A. aeolicus IspH Protein Purification. BL-21(DE3) cells expressing IspH from A. aeolicus were grown in LB media supplemented with […] ampicillin at 37° C. until the OD600 reached 0.6. Cells were then induced with 200 μg/L anhydrotetracycline and then grown at 20° C. for 15 hours. Cells were harvested by centrifugation (9000 rpm, 8 min, 4° C.) and kept at −80° C. until use. Cell pellets were resuspended and lysed in B-PER (Thermo Scientific, Rockford, Ill.) protein extraction reagent for 1 hour at 4° C. and then centrifuged at […] at 4° C. for 15 minutes. The supernatant was applied to a Ni-NTA column equilibrated with 5 mM imidazole in pH 8.0 buffer containing 50 mM Tris HCl and 150 mM NaCl. After washing with 20 mM imidazole, protein was eluted with 100 mM imidazole. Fractions were collected and dialyzed in pH 8.0 buffer containing 50 mM Tris HCl, 150 mM NaCl, 5% glycerol, and 1 mM DTT, four times. The purified protein was flash-frozen in liquid nitrogen and stored at −80° C. until use.
E. coli IspH Protein Purification. BL21 DE3 (Invitrogen) cells harboring an E. coli IspH construct were grown in LB media at 37° C. until the OD600 reached 0.6. Induction was performed with 200 ng/mL anhydrotetracycline at 20° C. for 15 hours. Cells were harvested by centrifugation at 9000 rpm for 8 min and stored at −80° C. Cell pellets were resuspended and lysed in B-PER protein extraction reagent for about 1 hour at 4° C., and then the lysate was centrifuged at […] for 30 minutes. The supernatant was collected and loaded onto an IBA Strep-tag column equilibrated with buffer W (100 mM Tris.HCl, 150 mM NaCl, pH 8.0). After washing with buffer W, protein was eluted using buffer E (buffer W containing 2.5 mM desthiobiotin). Fractions were collected and dialyzed in pH 8.0 buffer containing 50 mM Tris.HCl, 150 mM NaCl, 5% glycerol, and 1 mM DTT, twice. The purified protein was flashfrozen in liquid nitrogen and stored at −80° C. until use.
Protein Reconstitution. […] Before reconstitution, protein was transferred into a Coy vinyl anaerobic chamber after being degassed on a Schlenk line. The following steps were performed inside the anaerobic chamber with an oxygen level <2 ppm. In a typical reconstitution experiment, 10 mM DTT and ˜0.5 mg of elemental sulfur were added to 3 mL of 0.6 mM protein solution in a pH 8.0 buffer containing 50 mM Tris HCl, 150 mM NaCl, and 5% glycerol. After 1.5 hours under stirring, FeCl3 was slowly added from a 30 mM stock solution to 6 equiv. After 3 hours, an aliquot of the solution was centrifuged and a UV-vis spectrum recorded. If the A410 nm/A280 nm ratio was ≧0.38, the protein was then desalted by passing through a PD10 column. If the ratio was <0.38, more DTT, elemental sulfur, and FeCl3 were added, and the sample was incubated with stirring (for typically ˜2 h) until the 410 nm/280 nm absorption ratio was ˜0.38. The reconstituted protein was then concentrated by ultrafiltration, and the protein concentration was determined by using a Bio-Rad (Hercules, Calif.) protein assay kit.
IspH inhibition assays. Assays were performed anaerobically at room temperature according to the methods of Altincicek et. al. (FEBS Lett. (2002) 532: 437-440) with the following modifications. […]
For enzyme assays, various amounts of the test inhibitor ([…]) were added and the reactions were monitored at 732 nm. […]

T1 sequence (O67625 whole entry): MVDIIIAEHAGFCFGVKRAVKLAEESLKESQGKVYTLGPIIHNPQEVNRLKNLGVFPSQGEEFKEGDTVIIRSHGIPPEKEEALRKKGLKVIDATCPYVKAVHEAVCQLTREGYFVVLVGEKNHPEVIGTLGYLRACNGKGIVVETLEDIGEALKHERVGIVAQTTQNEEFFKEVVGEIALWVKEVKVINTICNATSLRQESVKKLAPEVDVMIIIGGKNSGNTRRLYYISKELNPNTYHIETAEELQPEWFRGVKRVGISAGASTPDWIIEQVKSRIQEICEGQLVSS

C#CCOP(=O)(O)OP(=O)(O)O [BPH-1061, Prop-2-ynyl diphosphate]
IC50 (IspH inhibition, inhibitor incubated 10 minutes before 34 μM HMBPP): 6.8 µM

C#CC[PH](=O)CP(=O)(O)O (centres unmarked) [BPH-1084, [[(Prop-2-ynyl)phosphinyl]methyl]phosphonic acid]
activity in IspH inhibition (in words) (relative to parent or comparator compounds): decreased activity

C#CCCOP(=O)(O)OP(=O)(O)O [BPH-1077, But-3-ynyl diphosphate]
Ki (IspH inhibition, Ki deduced from IC50 by Cheng-Prusoff equation, read-out: Ki): ~0.2 µM

O=C(O)CCCCOP(=O)(O)OP(=O)(O)O [BPH-988, 5-Pentanoic acid diphosphate]
Ki (Ki): 51 µM

C#CCO [Propargyl alcohol, reference compound]
Ki (IspH inhibition, read-out: Ki): > 10000 µM
